# Molecular target: MVL (rMVL) (Microcystis viridis, UniProt Q9RHG4)
# Assay type: binding
# Sequence of MVL (rMVL) (Q9RHG4 2-114 limits assumed): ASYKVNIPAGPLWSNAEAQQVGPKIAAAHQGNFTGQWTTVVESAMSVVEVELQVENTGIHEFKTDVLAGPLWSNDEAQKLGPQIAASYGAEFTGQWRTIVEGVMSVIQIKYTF
compound,measurement,value
OC[C@H]1OC(O)[C@H](O)[C@@H](O)[C@H]1O (stereo partly shown) [galactose],% SPR signal retained at 100 mM,~ 40%

# — article PMC11203576 (International Journal of Molecular Sciences, 2024)
